Experimental data taken from patent publication US20240110220A1, “DETECTING BETA-LACTAMASE ENZYME ACTIVITY” (COMMISSARIAT A L'ENERGIE ATOMIQUE ET AUX ENERGIES …, priority 2021, published 2024).

System: bacterial colonies
Experiment: Validation of the rapid test strip on bacterial colonies sensitive or resistant to third-generation cephalosporins (Table 12)
Format: biochemical
Parameters: key: A signal on the TL is considered as “P”; An absence of signal on the TL is defined as “N”
Procedure: In order to validate the test strip on bacterial colonies for its clinical use, […].
In order to carry out these tests, all of the solutions below have been prepared in the buffer strip having, for composition: 0.1 M pH 8 Tris buffer/HCL+0.15 M NaCl+0.5% Tween 20+1% chaps+0.01% sodium azide. […] The tracer is in dried format on the CP. […] A CL was produced. It consists of anti-tracer antibodies. The migration is carried out in a plastic cassette.
A bacterial colony was sampled from an URI-4 agar with a 1 μl ose, then deposited in the previously prepared Eppendorf tube. The tube was vortexed for five seconds, then incubated for 30 minutes at ambient temperature. Once the incubation was finished, 100 μl was sampled and deposited on the test strip. The reading is carried out after 10 minutes migration. A signal on the TL is considered as “P”. An absence of signal on the TL is defined as “N”.

CO/N=C(\C(=O)N[C@@H]1C(=O)N2C(C(=O)O)=C(COC(C)=O)CS[C@H]12)c1csc(N)n1 [non-hydrolysed cefotaxime, cefotaxime]
results of the test (C. freundii, CMY-135 + MOX-9 + OXA-372 + OXA-10, isolate number 1, strains capable of hydrolysing cefotaxime): P | results of the test (C. freundii, CMY-150 + LMB-1, isolate number 1, strains capable of hydrolysing cefotaxime): P | results of the test (C. freundii, CTX-M + VIM + OXA-48, isolate number 1, strains capable of hydrolysing cefotaxime): P | results of the test (C. freundii, CTX-M-1, isolate number 1, strains capable of hydrolysing cefotaxime): P | results of the test (C. freundii, CTX-M-15 + TEM-1 + CMY-48 + OXA-48 like, isolate number 1, strains capable of hydrolysing cefotaxime): P | results of the test (C. freundii, CTX-M-15, isolate number 1, strains capable of hydrolysing cefotaxime): P | results of the test (C. freundii, N/A, isolate number 1, strains not capable of hydrolysing cefotaxime): N | results of the test (C. freundii, SHV-12 + TEM-1 + OXA-48, isolate number 1, strains capable of hydrolysing cefotaxime): P | results of the test (C. freundii, SHV-12, isolate number 1, strains capable of hydrolysing cefotaxime): P | results of the test (C. freundii, TEM-1 + KPC-2, isolate number 1, strains capable of hydrolysing cefotaxime): P | results of the test (C. freundii, TEM-1 + VIM-2 + OXA-9 + OXA-10, isolate number 1, strains capable of hydrolysing cefotaxime): P | results of the test (C. freundii, TEM-1 + VIM-2, isolate number 1, strains capable of hydrolysing cefotaxime): P | results of the test (C. freundii, TEM-3 + Overexpressed AmpC, isolate number 2, strains capable of hydrolysing cefotaxime): P | results of the test (C. koserii, CTX-M-1, isolate number 1, strains capable of hydrolysing cefotaxime): P | results of the test (C. koserii, TEM-1 + OXA-48, isolate number 1, strains capable of hydrolysing cefotaxime): P | results of the test (E. asburiae, IMI-2, isolate number 2, strains not capable of hydrolysing cefotaxime): N | results of the test (E. asburiae, IMI-17, isolate number 1, strains not capable of hydrolysing cefotaxime): N | results of the test (E. cloacae, CTX-M-9, isolate number 1, strains capable of hydrolysing cefotaxime): P | results of the test (E. cloacae, FRI-1, isolate number 1, strains capable of hydrolysing cefotaxime): P | results of the test (E. cloacae, GES-6, isolate number 1, strains capable of hydrolysing cefotaxime): P | results of the test (E. cloacae, GIM-1, isolate number 1, strains capable of hydrolysing cefotaxime): P | results of the test (E. cloacae, IMI-1, isolate number 1, strains not capable of hydrolysing cefotaxime): N | results of the test (E. cloacae, IMI-3 + Overexpressed AmpC, isolate number 1, strains capable of hydrolysing cefotaxime): P | results of the test (E. cloacae, N/A, isolate number 2, strains not capable of hydrolysing cefotaxime): N | results of the test (E. cloacae, Overexpressed AmpC, isolate number 7, strains capable of hydrolysing cefotaxime): P | results of the test (E. cloacae, TEM-3, isolate number 1, strains capable of hydrolysing cefotaxime): P | results of the test (E. cloacae, TMB-1, isolate number 1, strains capable of hydrolysing cefotaxime): P | results of the test (E. coli, CTX-M + NDM-5 + OXA-181, isolate number 1, strains capable of hydrolysing cefotaxime): P | results of the test (E. coli, CTX-M + SHV + NDM-1 + OXA-48, isolate number 1, strains capable of hydrolysing cefotaxime): P | results of the test (E. coli, CTX-M-9 + TEM-1 + KPC-2, isolate number 1, strains capable of hydrolysing cefotaxime): P | results of the test (E. coli, CTX-M-15 + CMY-2 + OXA-204 + OXA-1, isolate number 1, strains capable of hydrolysing cefotaxime): P | results of the test (E. coli, CTX-M-15 + CMY-4 + OXA-204 + OXA-1, isolate number 1, strains capable of hydrolysing cefotaxime): P | results of the test (E. coli, CTX-M-15 + CMY-4 + OXA-204, isolate number 1, strains capable of hydrolysing cefotaxime): P | results of the test (E. coli, CTX-M-15 + CMY-6 + NDM-4, isolate number 1, strains capable of hydrolysing cefotaxime): P | results of the test (E. coli, CTX-M-15 + NDM-6 + OXA-1, isolate number 1, strains capable of hydrolysing cefotaxime): P | results of the test (E. coli, CTX-M-15 + OXA-232 + OXA-1, isolate number 1, strains capable of hydrolysing cefotaxime): P | results of the test (E. coli, CTX-M-15 + TEM-1 + CMY + NDM-1, isolate number 1, strains capable of hydrolysing cefotaxime): P | results of the test (E. coli, CTX-M-93, isolate number 1, strains not capable of hydrolysing cefotaxime): N | results of the test (E. coli, TEM-1 + CMY-16 + NDM-1 + OXA-1 + OXA-10, isolate number 1, strains capable of hydrolysing cefotaxime): P | results of the test (E. coli, TEM-1 + NDM-9 + OXA-1, isolate number 1, strains capable of hydrolysing cefotaxime): P | results of the test (K. oxytoca, CTX-M-15, isolate number 2, strains capable of hydrolysing cefotaxime): P | results of the test (K. oxytoca, DHA-1 + SHV-75, isolate number 1, strains capable of hydrolysing cefotaxime): P | results of the test (K. pneumoniae, CMY-4 + OXA-204, isolate number 1, strains capable of hydrolysing cefotaxime): P | results of the test (K. pneumoniae, CTX-M + KPC-3, isolate number 1, strains capable of hydrolysing cefotaxime): P | results of the test (K. pneumoniae, CTX-M + MCR-1, isolate number 2, strains capable of hydrolysing cefotaxime): P | results of the test (K. pneumoniae, CTX-M + NDM-1 + OXA-232, isolate number 1, strains capable of hydrolysing cefotaxime): P | results of the test (K. pneumoniae, CTX-M + NDM-4 + KPC-2, isolate number 1, strains capable of hydrolysing cefotaxime): P | results of the test (K. pneumoniae, CTX-M + NDM-5 + OXA-232, isolate number 1, strains capable of hydrolysing cefotaxime): P | results of the test (K. pneumoniae, CTX-M + OXA-370, isolate number 1, strains capable of hydrolysing cefotaxime): P | results of the test (K. pneumoniae, CTX-M + OXA-519, isolate number 1, strains capable of hydrolysing cefotaxime): P | results of the test (K. pneumoniae, CTX-M + SHV-11 + TEM-1 + OXA-162, isolate number 1, strains capable of hydrolysing cefotaxime): P | results of the test (K. pneumoniae, CTX-M + SHV-12 + GES-5, isolate number 1, strains capable of hydrolysing cefotaxime): P | results of the test (K. pneumoniae, CTX-M-2, isolate number 1, strains capable of hydrolysing cefotaxime): P | results of the test (K. pneumoniae, CTX-M-3 + SHV-1 + TEM-1 + VIM-19, isolate number 1, strains capable of hydrolysing cefotaxime): P | results of the test (K. pneumoniae, CTX-M-3, isolate number 1, strains capable of hydrolysing cefotaxime): P | results of the test (K. pneumoniae, CTX-M-8, isolate number 1, strains capable of hydrolysing cefotaxime): P | results of the test (K. pneumoniae, CTX-M-14 + SHV-11 + TEM-1, isolate number 1, strains capable of hydrolysing cefotaxime): P | results of the test (K. pneumoniae, CTX-M-15 + SHV-1 + TEM-1 + OXA-232 + OXA-1, isolate number 1, strains capable of hydrolysing cefotaxime): P | results of the test (K. pneumoniae, CTX-M-15 + SHV-1 + TEM-1, isolate number 1, strains capable of hydrolysing cefotaxime): P | results of the test (K. pneumoniae, CTX-M-15 + SHV-1, isolate number 1, strains capable of hydrolysing cefotaxime): P | results of the test (K. pneumoniae, CTX-M-15 + SHV-11 + TEM-1 + NDM-1 + OXA-1 + OXA-181, isolate number 1, strains capable of hydrolysing cefotaxime): P | results of the test (K. pneumoniae, CTX-M-15 + SHV-11 + TEM-1 + NDM-1 + OXA-1, isolate number 1, strains capable of hydrolysing cefotaxime): P | results of the test (K. pneumoniae, CTX-M-15 + SHV-11, isolate number 1, strains capable of hydrolysing cefotaxime): P | results of the test (K. pneumoniae, CTX-M-15 + SHV-27 + TEM-1 + NDM-1 + OXA-1 + OXA-181, isolate number 1, strains capable of hydrolysing cefotaxime): P | results of the test (K. pneumoniae, CTX-M-15 + SHV-28 + TEM-1 + CMY + OXA-204, isolate number 1, strains capable of hydrolysing cefotaxime): P | results of the test (K. pneumoniae, CTX-M-15 + SHV-99 + TEM-1, isolate number 1, strains capable of hydrolysing cefotaxime): P | results of the test (K. pneumoniae, CTX-M-15 + TEM-1 + OXA-48, isolate number 1, strains capable of hydrolysing cefotaxime): P | results of the test (K. pneumoniae, CTX-M-15 + TEM, isolate number 1, strains capable of hydrolysing cefotaxime): P | results of the test (K. pneumoniae, CTX-M-15, isolate number 1, strains capable of hydrolysing cefotaxime): P | results of the test (K. pneumoniae, CTX-M-18, isolate number 1, strains capable of hydrolysing cefotaxime): P | results of the test (K. pneumoniae, CTX-M-19, isolate number 1, strains capable of hydrolysing cefotaxime): P | results of the test (K. pneumoniae, DHA-2, isolate number 1, strains capable of hydrolysing cefotaxime): P | results of the test (K. pneumoniae, GES-1, isolate number 1, strains capable of hydrolysing cefotaxime): P | results of the test (K. pneumoniae, IMP-8, isolate number 1, strains capable of hydrolysing cefotaxime): P | results of the test (K. pneumoniae, KPC + VIM, isolate number 1, strains capable of hydrolysing cefotaxime): P | results of the test (K. pneumoniae, KPC-3, isolate number 1, strains capable of hydrolysing cefotaxime): P | results of the test (K. pneumoniae, KPC-4 + NDM-7, isolate number 1, strains capable of hydrolysing cefotaxime): P | results of the test (K. pneumoniae, MCR-1 + SHV-2 + SHV-106 + mgrB truncated in orf by IS5, isolate number 1, strains capable of hydrolysing cefotaxime): P | results of the test (K. pneumoniae, NDM-1, isolate number 1, strains capable of hydrolysing cefotaxime): P | results of the test (K. pneumoniae, NDM-5 + VIM-1 + OXA-181, isolate number 1, strains capable of hydrolysing cefotaxime): P | results of the test (K. pneumoniae, OXA-48, isolate number 1, strains capable of hydrolysing cefotaxime): P | results of the test (K. pneumoniae, OXA-163, isolate number 2, strains capable of hydrolysing cefotaxime): P | results of the test (K. pneumoniae, OXA-517, isolate number 1, strains capable of hydrolysing cefotaxime): P | results of the test (K. pneumoniae, SHV-2a, isolate number 1, strains capable of hydrolysing cefotaxime): P | results of the test (K. pneumoniae, SHV-5 + IMP-1, isolate number 1, strains capable of hydrolysing cefotaxime): P | results of the test (K. pneumoniae, SHV-5 + VIM-1, isolate number 2, strains capable of hydrolysing cefotaxime): P | results of the test (K. pneumoniae, SHV-11 + OXA-48, isolate number 1, strains capable of hydrolysing cefotaxime): P | results of the test (K. pneumoniae, SHV-11 + TEM-1 + KPC-3 + OXA-9, isolate number 1, strains capable of hydrolysing cefotaxime): P | results of the test (K. pneumoniae, SHV-11, isolate number 1, strains capable of hydrolysing cefotaxime): P | results of the test (K. pneumoniae, SHV-12 + IMP-8, isolate number 1, strains capable of hydrolysing cefotaxime): P | results of the test (K. pneumoniae, SHV-36 + TEM-1, isolate number 1, strains capable of hydrolysing cefotaxime): P | results of the test (K. pneumoniae, SHV-38, isolate number 1, strains capable of hydrolysing cefotaxime): P | results of the test (K. pneumoniae, TEM-3, isolate number 1, strains capable of hydrolysing cefotaxime): P | results of the test (P. mirabilis, ACC-1, isolate number 1, strains capable of hydrolysing cefotaxime): P | results of the test (P. mirabilis, CTX-M-71, isolate number 1, strains capable of hydrolysing cefotaxime): P | results of the test (P. mirabilis, N/A, isolate number 1, strains not capable of hydrolysing cefotaxime): N | results of the test (P. mirabilis, OXA-23, isolate number 1, strains not capable of hydrolysing cefotaxime): N | results of the test (P. mirabilis, OXA-58, isolate number 1, strains not capable of hydrolysing cefotaxime): N | results of the test (P. mirabilis, TEM-52, isolate number 1, strains capable of hydrolysing cefotaxime): P | results of the test (Salmonella spp., N/A, isolate number 1, strains not capable of hydrolysing cefotaxime): N
